Source: paper PMC3229304 (2011)

Biological target: KDM5B/JARID1B/PLU-1 (Homo sapiens, UniProt Q9UGL1)
Experiment: in vitro histone demethylase inhibition, Ki
Assay type: biochemical

Sequence of KDM5B/JARID1B/PLU-1 (Q9UGL1 whole entry): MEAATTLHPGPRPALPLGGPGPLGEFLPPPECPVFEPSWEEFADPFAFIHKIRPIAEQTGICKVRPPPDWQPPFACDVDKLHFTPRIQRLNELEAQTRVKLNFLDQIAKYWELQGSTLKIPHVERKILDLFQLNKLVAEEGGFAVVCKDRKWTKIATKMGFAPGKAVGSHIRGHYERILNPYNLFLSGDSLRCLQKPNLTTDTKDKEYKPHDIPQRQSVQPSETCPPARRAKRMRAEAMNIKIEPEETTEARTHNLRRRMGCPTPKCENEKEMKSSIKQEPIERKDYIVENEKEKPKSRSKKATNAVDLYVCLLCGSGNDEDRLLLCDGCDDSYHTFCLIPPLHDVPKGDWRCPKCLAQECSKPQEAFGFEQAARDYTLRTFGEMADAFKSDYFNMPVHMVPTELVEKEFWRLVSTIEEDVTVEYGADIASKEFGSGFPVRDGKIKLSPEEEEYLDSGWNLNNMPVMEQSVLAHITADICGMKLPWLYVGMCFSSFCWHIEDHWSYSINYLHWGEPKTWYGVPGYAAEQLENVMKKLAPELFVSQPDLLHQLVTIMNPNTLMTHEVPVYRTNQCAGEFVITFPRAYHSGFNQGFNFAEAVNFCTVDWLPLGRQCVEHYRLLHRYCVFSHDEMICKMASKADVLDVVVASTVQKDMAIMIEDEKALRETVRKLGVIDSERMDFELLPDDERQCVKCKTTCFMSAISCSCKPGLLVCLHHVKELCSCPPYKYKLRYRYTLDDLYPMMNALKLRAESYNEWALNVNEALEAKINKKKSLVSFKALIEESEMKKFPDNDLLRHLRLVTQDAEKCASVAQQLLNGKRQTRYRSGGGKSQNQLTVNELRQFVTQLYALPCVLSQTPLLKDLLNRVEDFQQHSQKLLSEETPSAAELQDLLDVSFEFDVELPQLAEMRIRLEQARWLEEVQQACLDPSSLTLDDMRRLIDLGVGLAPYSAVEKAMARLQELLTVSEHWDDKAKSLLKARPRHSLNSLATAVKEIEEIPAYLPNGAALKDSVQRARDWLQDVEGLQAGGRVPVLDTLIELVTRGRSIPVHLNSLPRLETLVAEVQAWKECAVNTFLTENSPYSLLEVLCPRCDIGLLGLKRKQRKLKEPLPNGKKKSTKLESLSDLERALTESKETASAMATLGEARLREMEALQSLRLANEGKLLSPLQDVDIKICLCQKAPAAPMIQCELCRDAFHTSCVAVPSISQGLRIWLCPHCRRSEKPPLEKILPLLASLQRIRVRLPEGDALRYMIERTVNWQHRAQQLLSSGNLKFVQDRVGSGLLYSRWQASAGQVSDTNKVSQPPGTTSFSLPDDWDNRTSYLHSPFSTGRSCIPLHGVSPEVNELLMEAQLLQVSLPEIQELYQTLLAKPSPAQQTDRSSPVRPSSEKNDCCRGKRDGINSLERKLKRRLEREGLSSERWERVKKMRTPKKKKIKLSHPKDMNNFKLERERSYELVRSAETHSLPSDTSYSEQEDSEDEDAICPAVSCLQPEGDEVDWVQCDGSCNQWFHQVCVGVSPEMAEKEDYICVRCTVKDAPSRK

## O=C(O)CNC(=O)C(=O)O [N-oxalylglycine]
  Ki: 653 ± 128 µM
